Assays:
hIAPP = molecular target: T1, hIAPP (Homo sapiens, UniProt P10997); assay: ThT-binding assay, inhibition of hIAPP aggregation; format: biochemical; conditions: for Normalized ThT fluorescence: hIAPP (10 µM) : molecule 1:5, average of three data sets; for % amyloid of hIAPP: hIAPP 10 µM
T1 construct: hIAPP is a 37-amino acid neuroendocrine peptide hormone; purchased Peptide 2.0 (USA)
T1 sequence (P10997 34-70 limits assumed): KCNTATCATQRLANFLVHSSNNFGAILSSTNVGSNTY
Experimental: A similar inhibitory effect by the hybrid molecules was found toward hIAPP aggregation. […] Upon co-incubation of hIAPP with the hybrid molecules, a dose-response inhibition of hIAPP fibril formation was observed (Fig. 2d, e and Supplementary Fig. 3). […] Also, for IAPP, the marginally stronger inhibitory effect of WGalNAc was statistically significant (Supplementary Fig. 2b).
The resulting thin films were dissolved in PBS (100 mM, pH 7.4) and sonicated for 5 min to get a stock concentration of 50 µM, which immediately diluted to required concentration for an experiment. Stock solutions of ThT (4 mM in PBS) and hybrid molecules (10 mM in PBS) were prepared. All the stock solutions were diluted according to the requirement.
The experiment was performed according to the previous report. […] Kinetics fluorescence data were collected at 37 °C in triplicate using Infinite M200 microplate reader (Tecan, Switzerland), with measurements acquired at 15 min intervals. Excitation and emission wavelengths were set at 440 nm and 485 nm, respectively.

Aβ42 = molecular target: T2, Aβ42 (Homo sapiens, UniProt P05067); assay: Congo red birefringence of Aβ42 fibrils formed with the tested molecules; conditions: 5-fold excess of compound
T2 construct: purchased rPeptide (USA)
From the text: These fibrils also generated the amyloid specific gold-green birefringence upon staining with Congo red (Fig. 3, bottom panel and Supplementary Fig. 6)[74].

[1] = molecular target: T3, pre-formed fibrils of Aβ42 (Homo sapiens, UniProt P05067); assay: Congo red birefringence of pre-formed Aβ42 fibrils with the tested molecules; conditions: 5-fold excess of compound
T3 construct: purchased rPeptide (USA)
Experimental: For efficient treatment of proteinopathies it may be advantageous to disassemble amyloid aggregates/fibrils which are usually already present at the time of diagnosis[75]–[77]. Therefore, the ability of the hybrid molecules to disrupt pre-formed fibrils of Aβ42 and hIAPP was examined. […] According to the ThT kinetic results, this time was sufficient to complete fibril formation (Fig. 2a, d). Then, various doses of the hybrid molecules were added to the pre-formed fibrils and the mixtures were incubated for additional 10 h. The process of disaggregation was monitored by ThT-binding assay, CD spectroscopy, TEM and Congo red staining (Fig. 5).

T2 sequence (P05067 672-713 limits assumed): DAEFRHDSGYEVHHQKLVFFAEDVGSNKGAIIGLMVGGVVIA
T3 sequence (P05067 672-713 limits assumed): as above

NC(Cc1c[nH]c2ccccc12)C(=O)NC(Cc1c[nH]c2ccccc12)C(=O)O (stereo not shown) [WW]
Normalized ThT fluorescence (hIAPP; Time 0 h): 29.978 | Normalized ThT fluorescence (hIAPP; Time 0.25 h): -2.428 | Normalized ThT fluorescence (hIAPP; Time 0.5 h): 312.254 | Normalized ThT fluorescence (hIAPP; Time 0.75 h): 629.363 | Normalized ThT fluorescence (hIAPP; Time 1 h): 980.330 | Normalized ThT fluorescence (hIAPP; Time 1.25 h): 1609.153 | Normalized ThT fluorescence (hIAPP; Time 1.5 h): 2335.279 | Normalized ThT fluorescence (hIAPP; Time 1.75 h): 2857.634 | Normalized ThT fluorescence (hIAPP; Time 2 h): 3166.885 | Normalized ThT fluorescence (hIAPP; Time 2.25 h): 3521.809 | Normalized ThT fluorescence (hIAPP; Time 2.5 h): 3762.743 | Normalized ThT fluorescence (hIAPP; Time 2.75 h): 4063.191 | Normalized ThT fluorescence (hIAPP; Time 3 h): 4256.338 | Normalized ThT fluorescence (hIAPP; Time 3.25 h): 4441.516 | Normalized ThT fluorescence (hIAPP; Time 3.5 h): 4588.861 | Normalized ThT fluorescence (hIAPP; Time 3.75 h): 4641.496 | Normalized ThT fluorescence (hIAPP; Time 4 h): 4783.902 | Normalized ThT fluorescence (hIAPP; Time 4.25 h): 5155.140 | Normalized ThT fluorescence (hIAPP; Time 4.5 h): 5083.691 | Normalized ThT fluorescence (hIAPP; Time 4.75 h): 5147.945 | Normalized ThT fluorescence (hIAPP; Time 5 h): 5383.622 | Normalized ThT fluorescence (hIAPP; Time 5.25 h): 5413.206 | Normalized ThT fluorescence (hIAPP; Time 5.5 h): 5636.242 | Normalized ThT fluorescence (hIAPP; Time 5.75 h): 5718.561 | Normalized ThT fluorescence (hIAPP; Time 6 h): 5762.151 | Normalized ThT fluorescence (hIAPP; Time 6.25 h): 5998.572 | Normalized ThT fluorescence (hIAPP; Time 6.5 h): 6267.216 | Normalized ThT fluorescence (hIAPP; Time 6.75 h): 6187.949 | Normalized ThT fluorescence (hIAPP; Time 7 h): 6251.809 | Normalized ThT fluorescence (hIAPP; Time 7.25 h): 6421.160 | Normalized ThT fluorescence (hIAPP; Time 7.5 h): 6518.393 | Normalized ThT fluorescence (hIAPP; Time 7.75 h): 6603.373 | Normalized ThT fluorescence (hIAPP; Time 8 h): 6737.364 | Normalized ThT fluorescence (hIAPP; Time 8.25 h): 6750.786 | Normalized ThT fluorescence (hIAPP; Time 8.5 h): 6792.841 | Normalized ThT fluorescence (hIAPP; Time 8.75 h): 6865.131 | Normalized ThT fluorescence (hIAPP; Time 9 h): 6824.556 | Normalized ThT fluorescence (hIAPP; Time 9.25 h): 6905.238 | Normalized ThT fluorescence (hIAPP; Time 9.5 h): 6910.878 | Normalized ThT fluorescence (hIAPP; Time 9.75 h): 6951.940 | Normalized ThT fluorescence (hIAPP; Time 10 h): 6938.219 | Normalized ThT fluorescence (hIAPP; Time 10.25 h): 6978.295 | Normalized ThT fluorescence (hIAPP; Time 10.5 h): 7036.631 | Normalized ThT fluorescence (hIAPP; Time 10.75 h): 7131.130 | Normalized ThT fluorescence (hIAPP; Time 11 h): 7205.208 | Normalized ThT fluorescence (hIAPP; Time 11.25 h): 7201.975 | Normalized ThT fluorescence (hIAPP; Time 11.5 h): 7247.388 | Normalized ThT fluorescence (hIAPP; Time 11.75 h): 7228.342 | Normalized ThT fluorescence (hIAPP; Time 12 h): 7216.738 | Normalized ThT fluorescence (hIAPP; Time 12.25 h): 7265.266 | Normalized ThT fluorescence (hIAPP; Time 12.5 h): 7198.053 | Normalized ThT fluorescence (hIAPP; Time 12.75 h): 7266.511 | Normalized ThT fluorescence (hIAPP; Time 13 h): 7230.088 | Normalized ThT fluorescence (hIAPP; Time 13.25 h): 7204.082 | Normalized ThT fluorescence (hIAPP; Time 13.5 h): 7254.393 | Normalized ThT fluorescence (hIAPP; Time 13.75 h): 7295.955 | Normalized ThT fluorescence (hIAPP; Time 14 h): 7250.976 | Normalized ThT fluorescence (hIAPP; Time 14.25 h): 7276.851 | Normalized ThT fluorescence (hIAPP; Time 14.5 h): 7406.119 | Normalized ThT fluorescence (hIAPP; Time 14.75 h): 7447.878 | Normalized ThT fluorescence (hIAPP; Time 15 h): 7365.784 | % amyloid of hIAPP (hIAPP; molar ratio hIAPP:tested molecule 1:1): 105.600% | % amyloid of hIAPP (hIAPP; molar ratio hIAPP:tested molecule 1:5): 115.433% | % amyloid of hIAPP (hIAPP; molar ratio hIAPP:tested molecule 5:1): 99.082% | inhibition of hIAPP fibril formation (ThT), in words (hIAPP; molar ratios 5:1, 1:1, 1:5): No inhibitory effect | Congo red birefringence of Aβ42, in words (Aβ42): intense gold-green birefringence | Congo red birefringence of pre-formed Aβ42 fibrils, in words [1]: faint birefringence
